Source: US20240238459A1, “Granzyme-Activatable Membrane-Interacting Peptides and Methods of Use” (priority 2021, published 2024)
Peptide text beside a SMILES is read from it. * marks the point of attachment. DOTA = O=C(O)CN1CCN(CC(=O)O)CCN(CC(=O)*)CCN(CC(=O)O)CC1; Ahx = NCCCCCC(=O)O

Tests used:
E. coli = assay: PET in E. coli myositis model (live vs heat killed, vs LPS); type: in vivo, mouse
Description: ^64Cu-GRIP B was also tested to determine whether it can detect granzyme B secreted from activated immune cells attempting to combat bacterial infections. A cohort of mice bearing bilateral deltoid implants of live E. coli or heat killed E. coli was established to test the kinetics of tracer uptake (FIG. 10).
Next, the granzyme B responses to live E. coli versus treatment with a bolus of the endotoxin LPS were compared. Three to four hours after implantation, mice received ^64Cu-GRIP B and were imaged serially (FIG. 12).

L. monoctyogenes = assay: PET in L. monoctyogenes myositis model; type: in vivo, mouse
From the text: Neither M. marinum nor the L. monoctyogenes induced ^64Cu-GRIP B uptake in live bacterial abscesses compared to heat killed controls.

subcutaneous CT26 tumors = assay: PET/CT, biodistribution and autoradiography in mice bearing CT26 tumors treated with vehicle or CPI
Description: (§1) The effect of immunomodulatory therapies on ^64Cu-GRIP B biodistribution was next evaluated in mice bearing subcutaneous CT26 tumors, a mouse colorectal cancer cell line that responds to immunomodulatory therapy. Mice were treated with three intraperitoneal infusions of vehicle or anti-PD1 plus anti-CTLA4 CPIs over 11 days. The radiotracer was injected on day 14, and tumor uptake was monitored over several time points out to 24 hours post injection on PET.
(§2) A biodistribution study at 2 hours post injection was performed to determine relative changes in tracer uptake between tissues in the vehicle and treated groups.
(§3) All animal experiments were approved by the Institutional Animal Care and Use Committee at UCSF. Four to six week old male or female balb/c mice and C57BL6/J mice were purchased from Jackson Laboratory and housed with free access to the water and food. All mice were inoculated with 5×10^6 CT26, MC38, or EMT6 cells in a mixture of media and Matrigel (Corning) (v/v 1:1) subcutaneously into the left shoulder. Anti-mouse PD-1 (CD279) (BE0146) and anti-mouse CTLA-4 (CD152) (BE0164) were purchased from Bio X Cell and stored at 4° C. during the treatment studies. Mice bearing subcutaneous tumors were received anti-mouse CTLA-4 (200 ug) or/and anti-mouse PD-1 (200 ug) and as a combination therapy or PBS as the vehicle on days 5, 8, 11 following the tumor inoculation. Mice were weighed and the tumor volume were measured with calipers on the same day of the treatment. On day 14, all mice were used for PET/CT or BioD studies.
(§4) ^64Cu-L-GRIP B or ^64Cu-D-GRIP B (˜100 μCi/mouse) in 100-150 μL of 10% DMSO and 10% Tween 80 in saline was injected via tail vein. After a period of uptake time, mice were anesthetized with isoflurane (˜2%), and imaged with a microPET/CT scanner (Inveon, Siemens). For static imaging, mice were scanned for 30 min for PET data acquisition and 10 min for CT data acquisition. For the dynamic acquisitions, the mice were anesthetized, positioned on the scanner bed, and injected intravenously with radiotracer. The dynamic acquisition was performed for scanned for 60 min followed by a 10 min CT acquisition.
(§5) At dedicated time points post radiotracer injection, mice were euthanized with CO2(g) asphyxiation, and the blood was collected by direct cardiac puncture. Tissues were harvested, weighed and counted on a gamma counter (Hidex). The amount of radioactivity in the tissues was determined by comparison with a standard of known activity. The samples were decay-corrected and expressed as the percentage of the injected dose/weight of the harvested tissues (% ID/g).
(§6) Tumors or designated tissue were flash frozen in OCT in dry ice. The tissues were sectioned with a microtome (Leica) into slices with 10-20 um thickness and directly mounted on glass slides (VWR). GE Storage Phosphor Screen were exposed by such slides with radioactive tissue. After 10 half-live of copper-64, the screen was developed on a phosphorimager (Typhoon 9400). The images were further analyzed by using Fiji software.

[1] = as above; settings: both, mouse, in vivo, iv, total radioactivity
Description: as §1, §2, §3, §4, §5, §6

P. aeruginosa = assay: PET in P. aeruginosa myositis model; type: in vivo, mouse
From the text: (§7) Performing additional myositis studies with other bacterial strains yielded unexpected and variable granzyme “responses” on PET. […] In both mouse cohorts, radiotracer uptake in the treated muscles was higher than in the normal muscle.

CT26 tumors = assay: Biodistribution in germline GZMB knockout mice bearing CT26 tumors, vehicle or CPI; type: in vivo, mouse
Description: Lastly, to confirm that GZMB is responsible for post treatment changes in ^64Cu-GRIP B biodistribution, germline homozygous GZMB knockout mice were inoculated with CT26 tumors and the relative biodistribution of ^64Cu-L-GRIP B in mice was assessed after treatment with vehicle or CPIs.
To confirm this, post treatment changes in tumoral uptake of ^64Cu-GRIP B were assessed for correlation with antitumor effects.

K. pneumoniae = assay: PET in K. pneumoniae myositis model; type: in vivo, mouse
From the text: as §7

secreted GZMB = target: T1, secreted GZMB (Mus musculus, UniProt P04187); assay: PET/CT and biodistribution after intratracheal LPS instillation; type: in vivo
T1 construct: from tissue; host or cells: live wild type mice; lungs and other organs after intratracheal LPS
T1 sequence (P04187 21-247): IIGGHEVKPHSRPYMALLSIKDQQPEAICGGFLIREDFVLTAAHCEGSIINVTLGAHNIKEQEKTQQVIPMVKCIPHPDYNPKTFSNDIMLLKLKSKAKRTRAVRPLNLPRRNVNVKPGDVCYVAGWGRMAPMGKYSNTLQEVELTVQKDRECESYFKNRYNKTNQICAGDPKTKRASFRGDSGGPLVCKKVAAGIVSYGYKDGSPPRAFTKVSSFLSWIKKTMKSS
Description: Though not well defined, non-cytotoxic functions for secreted GZMB have been proposed in several physiological processes, for example inflammation. To test if ^64Cu-GRIP B can localize potentially pathogenic reservoirs of secreted GZMB due to inflammation, ^64Cu-GRIP B PET/CT was performed on wild type mice that had received intratracheal instillations of lipopolysaccharide (LPS). PET/CT was performed four days after the instillation, a time point at which T cell recruitment to the lungs has occurred. […] Since 3 mg/kg LPS can trigger systemwide T cell activation, radiotracer uptake was examined in a larger panel of mouse organs. […] Remarkably, the systemwide impact on T cell activation due to the intratracheal instillation of LPS was also visually obvious by comparing maximum intensity projections between treatment arms (FIG. 6, panel E).

[2] = biodistribution at 2 hours post injection

SMILES: CC[C@H](C)[C@H](NC(=O)[C@H](CCCCN)NC(=O)CNC(=O)[C@H](CC(C)C)NC(=O)[C@H](Cc1ccccc1)NC(=O)[C@H](CCCCN)NC(=O)[C@H](CO)NC(=O)[C@H](Cc1ccccc1)NC(=O)[C@H](Cc1c[nH]c2ccccc12)NC(=O)[C@H](CCC(N)=O)NC(=O)[C@@H](NC(=O)[C@H](Cc1ccccc1)NC(=O)CCCCCNC(=O)CN1CCN(CC(=O)O)CCN(CC(=O)O)CCN(CC(=O)O)CC1)C(C)C)C(=O)N[C@@H](CCC(=O)O)C(=O)N1CCC[C@H]1C(=O)N[C@@H](CC(=O)O)C(=O)N[C@H](C(=O)N[C@@H](CO)C(=O)N[C@@H](CCC(N)=O)C(=O)N[C@H](C(=O)N[C@@H](CCC(N)=O)C(=O)N[C@@H](CC(=O)O)C(=O)N1CCC[C@H]1C(=O)N[C@@H](CC(N)=O)C(=O)N[C@@H](CC(=O)O)C(=O)N[C@@H](CCC(N)=O)C(=O)N[C@@H](Cc1ccc(O)cc1)C(=O)N[C@@H](CCC(=O)O)C(=O)N1CCC[C@H]1C(=O)N[C@@H](Cc1ccccc1)C(=O)O)C(C)C)C(C)C [^64Cu-GRIP B, metal not drawn] ({DOTA-Ahx}-FVQWFSKFLGKIEPDVSQVQDPNDQYEPF-OH)
- uptake in live abscess compared to site of heat killed bacterial implantation (E. coli; E. coli, bilateral deltoid implants): significantly higher
- time course of tracer uptake in the myositis lesion (E. coli; live E. coli deltoid implant): increased out to 5 hours and persisted to at least 24 hours post injection
- radiotracer uptake, live E. coli abscess versus bolus of LPS (E. coli; tracer three to four hours after implantation, serial imaging): differences in radiotracer uptake were detected from 6-24 hours post injection
- radiotracer uptake compared to normal muscle (L. monoctyogenes): significant increase
- uptake in live bacterial abscesses compared to heat killed controls (L. monoctyogenes): did not impact
- time course of uptake in treated tumors (subcutaneous CT26 tumors; CPI (anti-PD1 plus anti-CTLA4) treated, static PET/CT ROI analysis): steadily rose from 0.5 to 2-4 hours post injection
- persistence of radioactivity in tumors (subcutaneous CT26 tumors; CPI treated, PET): persisted in tumors out to 24 hours post injection
- digital autoradiography signal, treated versus control tumor (subcutaneous CT26 tumors; CT26 tumor slices, co-aligned with GZMB and CD3): significantly higher
- tumoral uptake, CPI versus vehicle treated arm (subcutaneous CT26 tumors; PET, 2 hours post injection): significantly higher
- induction of radiotracer uptake in tumors, treated compared to control mice (subcutaneous CT26 tumors; [2]): ~50%
- tracer uptake within the spleen, treated versus vehicle (subcutaneous CT26 tumors; [2]): significant increase
- radiotracer uptake in vehicle tumors by comparison with CPI treated (subcutaneous CT26 tumors; vehicle treated mice, dynamic PET): significantly lower and did not change over time
- correlation of tumor to blood ratios with percent change in tumor volume (subcutaneous CT26 tumors; wild type mice, day 11): significantly correlated
- correlation of tumoral uptake with percent change in tumor volume (subcutaneous CT26 tumors; wild type mice, day 11 compared to day 0): significantly correlated
- tissue uptake per volume at 10 min [1]: ~5 %ID/mL
- uptake in treated muscles versus normal muscle (P. aeruginosa): higher
- uptake in live bacterial infection versus contralateral heat killed bacteria (P. aeruginosa; deltoid muscles): higher
- correlation of tumoral uptake or tumor to blood ratio with percent changes in tumor volume (CT26 tumors; GZMB knockout mouse background): neither tumoral uptake nor tumor to blood ratio of ^64Cu-GRIP B correlated
- post treatment changes in radiotracer uptake in tumors and spleen, CPI compared to vehicle (CT26 tumors; germline homozygous GZMB knockout mice, CT26 tumors): No significant post treatment changes
- uptake in treated muscles versus normal muscle (K. pneumoniae): higher
- uptake in live bacterial infection versus contralateral heat killed bacteria (K. pneumoniae; deltoid muscles): higher
- autoradiography of the lungs, LPS treated (secreted GZMB; co-localized with GZMB and CD3 staining): visually higher radiotracer binding
- ex vivo biodistribution, LPS treated versus vehicle mice (secreted GZMB; either dose, including spleen and thymus): significantly higher in numerous tissues
- radiotracer accumulation in the lungs, LPS compared to vehicle (secreted GZMB; low (0.1 mg/kg) and high (3 mg/kg) doses of LPS, four days after instillation, ROI analysis): significantly higher
- normal tissue biodistribution (biodistribution out to 24 hours post injection): highest level of tissue-associated activity in the kidney and liver
- dominant mode of clearance (intravenous, C57B16/J mice, dynamic PET): renal
